ChEMBL document CHEMBL2440071, “Antimycobacterial and herbicidal activity of ring-substituted 1-hydroxynaphthalene-2-carboxanilides” (Bioorg Med Chem, 2013)
Converted amounts (≈) assume the structure as drawn. The source made the active and inactive calls. The rule behind the calls is not given here.

Tests used:
[1] = tested on: Mycolicibacterium smegmatis; assay: Antimycobacterial activity against Mycobacterium smegmatis ATCC 700084 after 3 days by two-fold serial dilution method; format: functional; details: ATCC 700084, 72 h
Mycobacterium kansasii = assay: Antimycobacterial activity against Mycobacterium kansasii DSM 44162 after 7 days by two-fold serial dilution method; format: functional; details: DSM 44162, 168 h
Mycobacterium marinum [2] = assay: Antimycobacterial activity against Mycobacterium marinum CAMP 5644 after 21 days by two-fold serial dilution method; format: functional; details: CAMP 5644, 504 h
[3] = Lipophilicity, log K of the compound by RP-HPLC analysis; format: physicochemical
Spinacia oleracea [4] = assay: Inhibition of PS2 in spinach chloroplasts assessed as photoreduction of DCPIP measured remaining activity incubated for 2 mins in dark condition prior to testing by spectrophotometry relative to control; values are per cent of control; design: concentration or dose not given beside the values
Spinacia oleracea [5] = assay: Inhibition of PS2 in spinach chloroplasts assessed as photoreduction of DCPIP measured remaining activity incubated for 2 mins in dark condition prior to testing by spectrophotometry in presence of diphenylcarbazide relative to control; values are per cent of control; design: concentration or dose not given beside the values
[6] = Cytotoxicity against human THP1 cells after 24 hrs by lactate dehydrogenase assay; format: cell-based; details: THP-1 cells, read-out: LD50
[7] = Inhibition of PS2 in spinach chloroplasts assessed as photoreduction of DCPIP incubated for 2 mins in dark condition prior to testing by spectrophotometry; design: species or system Spinacia oleracea
Spinacia oleracea [8] = assay: Inhibition of PS2 in spinach chloroplasts assessed as reduction in chlorophyll a fluorescence emission at 0.1 to 1.2 mmol/L by fluorescence spectrophotometry
Mycobacterium marinum [9] = assay: Ratio of isoniazid MIC to compound MIC for Mycobacterium marinum CAMP 5644; format: functional
[10] = tested on: Mycolicibacterium smegmatis; assay: Ratio of isoniazid MIC to compound MIC for Mycobacterium smegmatis ATCC 700084; format: functional

SMILES | MIC [1] [µM] | MIC (Mycobacterium kansasii) [µM] | MIC (Mycobacterium marinum [2]) [µM] | log K [3] | residual activity (Spinacia oleracea [4]) [%] | residual activity (Spinacia oleracea [5]) [%] | CC50 at 24 h [6] [µM] | IC50 [7] [µM] | inhibition (Spinacia oleracea [8]) | Ratio (Mycobacterium marinum [9]) | Ratio [10]
O=C(Nc1ccccc1[N+](=O)[O-])c1ccc2ccccc2c1O | > 830 | > 830 | > 830 | 0.5014 | 10 | 95 | – | – | – | – | –
O=C(Nc1cccc(Br)c1)c1ccc2ccccc2c1O | > 748 | > 748 | > 748 | 1.1784 | 10 | 95 | > 20 | 8.2 | – | – | –
O=C(Nc1ccc(F)cc1)c1ccc2ccccc2c1O | > 910 | 14.2 (≈ 3.99 µg/mL) | 114 (≈ 32.1 µg/mL) | 1.0533 | 10 | 95 | > 10 | 20.3 | – | – | –
O=C(Nc1ccccc1C(F)(F)F)c1ccc2ccccc2c1O | > 773 | > 773 | 96.6 (≈ 32 µg/mL) | 0.6899 | 10 | 95 | > 20 | 126 | Active | – | –
O=C(Nc1ccccc1Cl)c1ccc2ccccc2c1O | 860 (≈ 256 µg/mL) | 860 (≈ 256 µg/mL) | 107 (≈ 31.9 µg/mL) | 0.8764 | 10 | 95 | – | 29.4 | – | – | –
O=C(Nc1cccc(F)c1)c1ccc2ccccc2c1O | 910 (≈ 256 µg/mL) | 28.4 (≈ 7.99 µg/mL) | 28.4 (≈ 7.99 µg/mL) | 1.0763 | 10 | 95 | > 10 | 15.6 | – | 16 | –
O=C(Nc1cccc(Cl)c1)c1ccc2ccccc2c1O | > 860 | 26.8 (≈ 7.98 µg/mL) | 107 (≈ 31.9 µg/mL) | 1.1615 | 10 | 95 | > 20 | 7.9 | – | – | –
O=C(Nc1cccc([N+](=O)[O-])c1)c1ccc2ccccc2c1O | > 830 | > 830 | > 830 | 0.6609 | 10 | 95 | – | 19.9 | – | – | –
O=C(Nc1ccc(Cl)cc1)c1ccc2ccccc2c1O | 215 (≈ 64 µg/mL) | 26.8 (≈ 7.98 µg/mL) | 215 (≈ 64 µg/mL) | 1.1314 | 10 | 95 | > 20 | 10.8 | – | – | –
Cc1cccc(NC(=O)c2ccc3ccccc3c2O)c1 | 57.7 (≈ 16 µg/mL) | 28.8 (≈ 7.99 µg/mL) | 28.8 (≈ 7.99 µg/mL) | 1.4254 | 10 | 95 | > 20 | 20 | – | 16 | 2.5
O=C(Nc1ccccc1F)c1ccc2ccccc2c1O | 228 (≈ 64.1 µg/mL) | > 910 | 56.8 (≈ 16 µg/mL) | 0.8296 | 10 | 95 | – | 57 | – | – | –
O=C(Nc1cccc(C(F)(F)F)c1)c1ccc2ccccc2c1O | > 748 | > 748 | 46.7 (≈ 15.5 µg/mL) | 1.127 | 10 | 95 | 1 | 5.3 | – | – | –
Cc1ccccc1NC(=O)c1ccc2ccccc2c1O | 231 (≈ 64.1 µg/mL) | 115 (≈ 31.9 µg/mL) | 28.8 (≈ 7.99 µg/mL) | 1.1176 | 10 | 95 | > 20 | 62.8 | – | 16 | –
O=C(Nc1ccc(C(F)(F)F)cc1)c1ccc2ccccc2c1O | > 748 | 23.3 (≈ 7.72 µg/mL) | 187 (≈ 62 µg/mL) | 1.1158 | 10 | 95 | 0.6 | 36.5 | – | – | –
CN(C)C(=O)Nc1ccc(Cl)c(Cl)c1 [DCMU] | – | – | – | – | – | – | – | 1.9 | – | – | –
COc1ccccc1NC(=O)c1ccc2ccccc2c1O | > 873 | > 873 | > 873 | 1.4716 | 10 | 95 | – | 200 | – | – | –
CC[C@@]1(O)C(=O)OCc2c1cc1n(c2=O)Cc2cc3ccccc3nc2-1 [CAMPTOTHECIN] | – | – | – | – | – | – | 0.16 | – | – | – | –
COc1cccc(NC(=O)c2ccc3ccccc3c2O)c1 | > 873 | > 873 | 54.5 (≈ 16 µg/mL) | 1.2849 | 10 | 95 | – | 23.5 | – | – | –
O=C(Nc1ccc([N+](=O)[O-])cc1)c1ccc2ccccc2c1O | > 830 | 51.9 (≈ 16 µg/mL) | 104 (≈ 32.1 µg/mL) | 0.5298 | 10 | 95 | – | 24 | – | – | –
Cc1ccc(NC(=O)c2ccc3ccccc3c2O)cc1 | 923 (≈ 256 µg/mL) | 57.7 (≈ 16 µg/mL) | 115 (≈ 31.9 µg/mL) | 1.4008 | 10 | 95 | – | 28.7 | – | – | –
O=C(Nc1ccc(Br)cc1)c1ccc2ccccc2c1O | 46.7 (≈ 16 µg/mL) | 23.3 (≈ 7.97 µg/mL) | 46.7 (≈ 16 µg/mL) | 1.1224 | 10 | 95 | > 20 | 9.6 | – | – | 2.5
O=C(Nc1ccccc1)c1ccc2ccccc2c1O | 243 (≈ 64 µg/mL) | 15.2 (≈ 4 µg/mL) | 60.7 (≈ 16 µg/mL) | 1.2302 | 10 | 95 | > 20 | 31.3 | – | – | –
NNC(=O)c1ccncc1 [ISONIAZID] | 117 (≈ 16 µg/mL) | – | 467 (≈ 64 µg/mL) | – | – | – | – | – | – | – | –
O=C(Nc1ccccc1Br)c1ccc2ccccc2c1O | > 748 | > 748 | > 748 | 0.9234 | 10 | 95 | – | 61.9 | – | – | –
COc1ccc(NC(=O)c2ccc3ccccc3c2O)cc1 | > 873 | > 873 | > 873 | 1.1882 | 10 | 95 | – | 79.5 | – | – | –
